In paper PMC11766601, “A Comparative Study of the In Vitro Intestinal Permeability of Pinnatoxins and Portimine” (Marine Drugs, 2025):
Marks after values point to notes of the source that are not given here.

How the values were obtained:
Caco-2 cell monolayers [1] = assay: Lucifer Yellow paracellular permeability (barrier integrity); type: cell-based, human; details: 24 h
Protocol: (§1) All experiments were performed with human intestinal Caco-2 cells (ATCC-HTB37), acquired from the American Type Culture Collection (ATCC; Manassas, VA, USA). Caco-2 cells originate from a colorectal adenocarcinoma, but upon reaching confluence, they differentiate and express the characteristics of enterocytes. The cells were cultivated in minimum essential medium containing 5.5 mM D-glucose, Earle’s salts, and 2 mM L-alanyl-glutamine (MEM GlutaMAX™, Gibco, Bromont, QC, Canada) supplemented with 10% fetal bovine serum (FBS, Gibco), 1% non-essential amino acids, 50 U/mL penicillin, and 50 μg/mL streptomycin (Gibco) under humidified conditions (37 °C, 5% CO2, 95% humidity). The cells were grown for 3–4 days up to 80% confluence before trypsinization and sub-culture. For the experiments, the cells were seeded in TRANSWELL® plates (12 wells, 0.4 µm pore size; Costar®, Corning Incorporated, Corning, NY, USA) at a density of 90,000 cells/cm^2. Prior to toxin treatment, highly differentiated Caco-2 cells were obtained after 24–26 days of culture, with medium renewal every 2–3 days. Passage numbers between 30 and 40 were used for experiments.
(§2) PnTX-A, PnTX-G, PnTX-E, PnTX-H, and portimine stock solutions were prepared in methanol, while PnTX-F was provided in acetonitrile/acetic acid (50%/0.1%). For each toxin, the cells were incubated at 8, 16, and 32 ng/mL (diluted in HBSS) for 2 h, 6 h, and 24 h, with a final volume of 1.5% solvent. The controls were incubated with the cell culture medium containing the respective solvent of the toxin at 1.5%. Each experiment included three biological replicates. Two to three independent experiments were conducted.
For the assay, both compartments of the insert system were washed with Hank’s balanced salt solution (HBSS). Then, 0.5 mL of 0.1 mg/mL Lucifer Yellow in HBSS buffer and 1 mL of pure HBSS buffer were added to the apical and basolateral compartments, respectively. After a 2 h incubation at 37 °C, the media of the basolateral compartments were collected and the fluorescence of each compartment was measured in triplicate (excitation: 405 nm, emission: 520 nm) with a FLUOstar Optima microplate reader (BMG Labtech, Ortenberg, Germany). After subtraction of the blank (HBSS), the permeability of the […] was calculated against the value obtained for pure LY and reported as % permeability.

[2] = Toxin crossing and apparent permeability across Caco-2 cell monolayers (A to B), LC-MS/MS; type: in vitro ADME, human; details: human, Caco-2; for Papp: 2 and 6 h, 8-32 ng/mL, read-out: Papp, range of means; for Papp at 2 h, 8 ng/mL / Papp at 6 h, 8 ng/mL: loaded 8 ng/mL; for Papp at 2 h, 8 ng/mL / Papp at 2 h, 16 ng/mL / Papp at 2 h, 32 ng/mL / Papp at 6 h, 8 ng/mL / Papp at 6 h, 16 ng/mL / Papp at 6 h, 32 ng/mL: A to B; for Papp at 2 h, 16 ng/mL / Papp at 6 h, 16 ng/mL: loaded 16 ng/mL; for Papp at 2 h, 32 ng/mL / Papp at 6 h, 32 ng/mL: loaded 32 ng/mL
Protocol: as §1, §2
(§3) The apical and basolateral compartments were collected after 2, 6, and 24 h treatment time. Parts of the solutions that were used to load the apical compartments were also stored (T0) to take into account the real concentration and not the estimated concentration. All the samples were stored at −20 °C until LC/MS analysis.
(§4) The LC-MS/MS analysis of toxins was implemented for the quantitative analysis of toxins. The LC system was an Agilent 1200 (Agilent Technologies, Santa Clara, CA, USA). The chromatographic separation was performed using a column Hypersil GOLD® C18 50 mm × 2.1 mm, 1.9 μm (Thermo Scientific, Waltham, MA, USA). Eluent A consisted of water, and eluent B of acetonitrile/water at a ratio of 95:5 (v/v), with both eluents containing 50 mM formic acid and 2 mM ammonium formate. The LC flow rate was 0.4 mL/min, and the gradient was programmed as follows: 10% B held for 0.5 min, 10–90% B in 5 min, 90% B held for 1 min, 90–10% B in 0.5 min, and 10% B held for 3.0 min, for a total run time of 10 min. The injection volume was 5 μL, while the column temperature was maintained at 40 °C. The column effluent was transferred via a divert valve (Valco Instruments Co., Inc., Houston, TX, USA), either to the mass spectrometer (between 1.7 and 5.5 min) or to waste.
(§5) The detection system was constructed with an API 4000 triple quadrupole mass spectrometer (Sciex, Framingham, MA, USA) equipped with an ElectroSpray Ionization (ESI) source (Turbo V). The mass spectrometer was operated in positive ESI mode. The source temperature was set at 600 °C, and the spray voltage was 5500 V. Air was used as a nebulizer gas and an auxiliary gas, with a gas pressure of 40 and 60 psi, respectively. Meanwhile, the curtain gas and collision gas were nitrogen, with a gas pressure of 15 and 8 psi, respectively. The mass spectrometer was operated in multiple reaction monitoring mode (MRM). One transition was used for quantification (Q) and another as a qualifier transition (q). A mass resolution of 0.7 Da full width at half maximum (FWHD) was set on the first (Q1) and the third (Q3) quadrupoles. Instrument control and data were handled with Analyst software version 1.5.1 (Sciex, Framingham, MA, USA).
(§6) The portimine and PnTX retention times varied between 2.7 and 4.4 min (Figure S1). […]

Caco-2 cell monolayers [3] = assay: as above; type: in vitro ADME, human; details: for % theoretical amount of toxin crossing the Caco-2 cell monolayers: relative to theoretical loaded concentration; for Percentage of toxin crossing the Caco-2 cell monolayers: A to B, relative to quantified T0; for amount of toxin crossing the intestinal barrier in vitro: regardless of the concentration loaded, 2 and 6 h; for permeability / oral bioavailability class from Caco-2 Papp: threshold Papp > 1.5 × 10^−6 cm·s^−1 = highly penetrative
Protocol: as §1, §2, §3, §4, §5, §6

Caco-2 cells = assay: Trans-epithelial electrical resistance (TEER) of differentiated Caco-2 monolayers; type: cell-based, human
Protocol: as §1, §2
Epithelial integrity was examined by measuring the TEER between the apical and basolateral compartments. After rinsing with a HBSS solution (HBSS, HEPES 5 mM, pH 7.4), the Caco-2 monolayers were equilibrated for 30 min at 37 °C with 300 and 1000 µL HBSS in the apical (A) and basolateral (B) chambers, respectively. Then, the content of the apical compartment was replaced with 500 µL HBSS-containing toxins. TEER was quantified with a Millipore Millicell Electrical Resistance System (ERS Millipore, EMD Millipore Corporation, Burlington, MA, USA). The mean value of two measurements per well before and after the treatment was calculated and multiplied by the surface of the insert to obtain Ω × cm^2. After blank subtraction, the results were presented as a percentage of the solvent control.

mice = details: mice, oral exposure; cited from earlier work
[4] = all concentrations (8, 16, 32 ng/mL)

| SMILES | effect on LY permeability (Caco-2 cell monolayers [1]; [4]) | Papp at 2 h, 8 ng/mL [2] [×10⁻⁶ cm/s] | Papp at 2 h, 16 ng/mL [2] [×10⁻⁶ cm/s] | Papp at 2 h, 32 ng/mL [2] [×10⁻⁶ cm/s] | Papp at 6 h, 8 ng/mL [2] [×10⁻⁶ cm/s] | Papp at 6 h, 16 ng/mL [2] [×10⁻⁶ cm/s] | Papp at 6 h, 32 ng/mL [2] [×10⁻⁶ cm/s] | % theoretical amount of toxin crossing the Caco-2 cell monolayers (Caco-2 cell monolayers [3]; 2 h, 8 ng/mL) [%] | % theoretical amount of toxin crossing the Caco-2 cell monolayers (Caco-2 cell monolayers [3]; 2 h, 16 ng/mL) [%] | % theoretical amount of toxin crossing the Caco-2 cell monolayers (Caco-2 cell monolayers [3]; 2 h, 32 ng/mL) [%] | Percentage of toxin crossing the Caco-2 cell monolayers (Caco-2 cell monolayers [3]; 2 h, loaded 8 ng/mL) | Percentage of toxin crossing the Caco-2 cell monolayers (Caco-2 cell monolayers [3]; 2 h, loaded 16 ng/mL) [%] | Percentage of toxin crossing the Caco-2 cell monolayers (Caco-2 cell monolayers [3]; 2 h, loaded 32 ng/mL) [%] | % theoretical amount of toxin crossing the Caco-2 cell monolayers (Caco-2 cell monolayers [3]; 6 h, 8 ng/mL) [%] | % theoretical amount of toxin crossing the Caco-2 cell monolayers (Caco-2 cell monolayers [3]; 6 h, 16 ng/mL) [%] | % theoretical amount of toxin crossing the Caco-2 cell monolayers (Caco-2 cell monolayers [3]; 6 h, 32 ng/mL) [%] | Percentage of toxin crossing the Caco-2 cell monolayers (Caco-2 cell monolayers [3]; 6 h, loaded 8 ng/mL) [%] | Percentage of toxin crossing the Caco-2 cell monolayers (Caco-2 cell monolayers [3]; 6 h, loaded 16 ng/mL) [%] | Percentage of toxin crossing the Caco-2 cell monolayers (Caco-2 cell monolayers [3]; 6 h, loaded 32 ng/mL) [%] | permeability / oral bioavailability class from Caco-2 Papp (Caco-2 cell monolayers [3]) | also measured |
| --- | --- | --- | --- | --- | --- | --- | --- | --- | --- | --- | --- | --- | --- | --- | --- | --- | --- | --- | --- | --- | --- |
| C=C1CCCC2=NCC(C)C(C)CC23CCC(C(=O)O)=CC3C2OC3(CC4CCCC5(CCC6(OC(CCC6(C)O)C1)O5)O4)CC(C)C(O)C2O3 (centres unmarked) [PnTX-A] | significant increase | 1.45 ± 1.03 | 1.4 ± 0.21 | 1.25 ± 0.39 | 2.13 ± 0.38 | 1.92 ± 0.95 | 1.48 ± 0.41 | 2.83 ± 2.1 | 2.5 ± 0.33 | 2.60 ± 0.80 | 2.35 ± 1.66% | 2.26 ± 0.34 | 2.01 ± 0.63 | 4.08 ± 0.52 | 3.42 ± 1.63 | 3.12 ± 1.05 | 3.44 ± 0.62 | 3.10 ± 1.53 | 2.39 ± 0.65 | poor permeability | Papp [2]: 1.25 to 2.13 ×10⁻⁶ cm/s; amount of toxin crossing the intestinal barrier in vitro (Caco-2 cell monolayers [3]): < 4%; effect on TEER (Caco-2 cells; irrespective of time (2, 6, 24 h) and concentration (8, 16, 32 ng/mL)): no effect |
| C=C1CCCC2=NCC(C)C(C)CC23CCC(C(O)CCC(=O)O)=CC3C2OC3(CC(C)CC2O3)CC2OC3(CCC4(OC(CCC4(C)O)C1)O3)CC(C)C2O (centres unmarked) [PnTX-E] | significant increase | 3.75 | 1.5 ± 0.4 | 1.81 ± 0.28 | 2.04 ± 0.4 | 1.49 ± 0.65 | 2.38 ± 0.71 | 5.25 | 2.12 ± 0.71 | 2.47 ± 0.31 | 6.05 * % | 2.41 ± 0.65 | 2.92 ± 0.45 | 2.87 ± 0.53 | 2.12 ± 1.06 | 3.25 ± 0.88 | 3.29 ± 0.64 | 2.40 ± 1.06 | 3.85 ± 1.15 | poor permeability | macroscopic lesions on the intestine, other organs and tissues (mice): no macroscopic lesions; Papp [2]: 1.49 to 3.75 ×10⁻⁶ cm/s; decrease of toxin amount in the apical compartment (Caco-2 cell monolayers [3]; 2 h, all the tested concentrations): approximately 15%; toxin amount in the apical compartment (Caco-2 cell monolayers [3]; 6 h): approximately 100 % of the loaded amount; amount of toxin crossing the intestinal barrier in vitro (Caco-2 cell monolayers [3]): < 4%; effect on TEER (Caco-2 cells; 24 h, 16 and 32 ng/mL): slight, but non-significant, decrease |
| C=CC1=CC2C3OC4(CC(C)CC3O4)CC3OC4(CCC5(OC(CCC5(C)O)CC(=C)CCCC5=NCC(C)C(C)CC52CC1)O4)CC(C)C3O (centres unmarked) [PnTX-H, Pinnatoxin H] |  | 19.5 ± 3.14 | 13.7 ± 4.83 | 18 ± 2.19 | 36 ± 5.4 | 30.3 ± 6.69 | 33.6 ± 2.43 | 3.96 ± 0.19 | 3.21±0.94 | 4.32 ± 1.10 | 31.52 ± 5.07% | 22.05 ± 7.80 | 29.07 ± 3.54 | 7.37 ± 1.42 | 7.10 ± 0.79 | 8.04 ± 1.80 | 58.06 ± 8.71 | 48.83 ± 11.22 | 54.22 ± 3.91 | high oral bioavailability | effect on passage of LY (Caco-2 cell monolayers [1]): lower effect; effect on LY permeability (Caco-2 cell monolayers [1]; 32 ng/mL only): significant increase; effect on TEER (Caco-2 cells; 24 h, 32 ng/mL): slight, but non-significant, decrease |
